Reference: patent US6573218B1, “Fused-benzene derivatives useful as herbicides” (Ishihara Sangyo Kaisha, Ltd., priority 1998, dated 2003)

Experiments:
Type in all cases: in vivo
[1] = system: field corn (Zea mays L., var. Dekalb 527, CORN); test: Pre-emerge greenhouse crop damage test
From the text: (§1) A standard greenhouse herbicide activity screening system was used to evaluate the herbicidal efficacy and crop safety of these test compounds. Seven broadleaf weed species including redroot pigweed (Amaranthus retroflexus, AMARE), velvetleaf (Abutilon theophrasti, ABUTH), sicklepod (Cassia obtusifolia, CASOB), ivyleaf morningglory (Ipomoea hederacea, IPOHE), lambsquarters (Chenopodium album, CHEAL), common ragweed (Ambrosia artemisiifolia L., AMBEL), and cocklebur (Xanthium strumarium, XANST) were used as test species. Four grass weed species including green foxtail (Setaria viridis, SETVI), barnyardgrass (Echinochloa crus-galli, ECHCG), johnsongrass (Sorghum halepense, SORHA), and large crabgrass (Digitaria sanguinalis, DIGSA) were also used. In addition, three crop species, field corn (Zea mays L., var. Dekalb 527, CORN), soybean (Glycine max L., var. Pella 86, SOY), and upland rice (Ory0a sp., var.Tebonnet, RICE) were included.
(§2) All plants were grown in 10 cm square plastic pots which were filled with a sandy loam soil mix. For pre-emerge tests, seeds were planted one day prior to application of the test compounds. For post-emerge tests, seeds were planted 8-21 days prior to the test to allow emergence and good foliage development prior to application of the test substances. At the time of the post-emerge application, plants of all species were usually at the 2-3 leaf stage of development.
(§3) All test compounds were dissolved in acetone and applied to the test units in a volume of 187 l/ha. Test materials were applied at rates ranging from 15 g ai/ha to 1000 g ai/ha using a track sprayer equipped with a TJ8001E even flow flat fan spray nozzle. Plants were arranged on a shelf so that the top of the canopy (post-emerge) or top of the soil surface (pre-emerge) was 40-45 cm below the nozzle. Pressurized air was used to force the test solution through the nozzle as it was mechanically advanced over the top of all test plants/pots. This application simulates a typical commercial field herbicide application.
(§4) In the post-emerge test, a commercial non-ionic surfactant was also included (0.25% v/v) to enhance wetting of the leaf surfaces of target plants. Immediately after application, test units of the pre-emerge applications were watered at the soil surface to incorporate the test materials.
(§5) At 14 days after application of the test materials, phytotoxicity ratings were recorded. A rating scale of 0-100 was used as previously described in Research Methods in Weed Science, 2nd edition, B. Truelove, Ed., Southern Weed Science Society, Auburn University, Auburn, Ala., 1977. Briefly, “0” corresponds to no damage and “100” corresponds to complete death of all plants in the test unit. This scale was used both to determine efficacy against weed species and damage to crop species. Herbicide activity data for various compounds of this invention, which are shown by compound No. in Tables 1-14, are shown in Tables 16 and 17.

[2] = system: upland rice (Ory0a sp., var.Tebonnet, RICE); test: Pre-emerge greenhouse crop damage test; settings: in vivo
From the text: as §1, §2, §3, §4, §5

[3] = system: soybean (Glycine max L., var. Pella 86, SOY); test: Pre-emerge greenhouse crop damage test
From the text: as §1, §2, §3, §4, §5

[4] = system: field corn (Zea mays L., var. Dekalb 527, CORN); test: Post-emerge greenhouse crop damage test
From the text: as §1, §2, §3, §4, §5

[5] = system: upland rice (Ory0a sp., var.Tebonnet, RICE); test: Post-emerge greenhouse crop damage test
From the text: as §1, §2, §3, §4, §5

[6] = system: soybean (Glycine max L., var. Pella 86, SOY); test: Post-emerge greenhouse crop damage test
From the text: as §1, §2, §3, §4, §5

[7] = system: redroot pigweed (Amaranthus retroflexus, AMARE); test: Post-emerge greenhouse herbicide test; settings: 250 g ai/ha, 14 days after application
From the text: as §1, §2, §3, §4, §5

[8] = system: barnyardgrass (Echinochloa crus-galli, ECHCG); test: Post-emerge greenhouse herbicide test; settings: 250 g ai/ha, 14 days after application
From the text: as §1, §2, §3, §4, §5

[9] = system: johnsongrass (Sorghum halepense, SORHA); test: Post-emerge greenhouse herbicide test; settings: 250 g ai/ha, 14 days after application
From the text: as §1, §2, §3, §4, §5

[10] = system: ivyleaf morningglory (Ipomoea hederacea, IPOHE); test: Post-emerge greenhouse herbicide test; settings: 250 g ai/ha, 14 days after application
From the text: as §1, §2, §3, §4, §5

[11] = system: velvetleaf (Abutilon theophrasti, ABUTH); test: Post-emerge greenhouse herbicide test; settings: 250 g ai/ha, 14 days after application
From the text: as §1, §2, §3, §4, §5

[12] = system: lambsquarters (Chenopodium album, CHEAL); test: Post-emerge greenhouse herbicide test; settings: 250 g ai/ha, 14 days after application
From the text: as §1, §2, §3, §4, §5

[13] = system: large crabgrass (Digitaria sanguinalis, DIGSA); test: Post-emerge greenhouse herbicide test; settings: 250 g ai/ha, 14 days after application
From the text: as §1, §2, §3, §4, §5

[14] = system: sicklepod (Cassia obtusifolia, CASOB); test: Post-emerge greenhouse herbicide test; settings: 250 g ai/ha, 14 days after application
From the text: as §1, §2, §3, §4, §5

[15] = system: green foxtail (Setaria viridis, SETVI); test: Post-emerge greenhouse herbicide test; settings: 250 g ai/ha, 14 days after application
From the text: as §1, §2, §3, §4, §5

[16] = system: redroot pigweed (Amaranthus retroflexus, AMARE); test: Pre-emerge greenhouse herbicide test; settings: 250 g ai/ha, 14 days after application, scale 0-100 (0 no damage, 100 complete death)
From the text: as §1, §2, §3, §4, §5

[17] = system: barnyardgrass (Echinochloa crus-galli, ECHCG); test: Pre-emerge greenhouse herbicide test; settings: 250 g ai/ha, 14 days after application, scale 0-100 (0 no damage, 100 complete death)
From the text: as §1, §2, §3, §4, §5

[18] = system: johnsongrass (Sorghum halepense, SORHA); test: Pre-emerge greenhouse herbicide test; settings: 250 g ai/ha, 14 days after application, scale 0-100 (0 no damage, 100 complete death)
From the text: as §1, §2, §3, §4, §5

[19] = system: ivyleaf morningglory (Ipomoea hederacea, IPOHE); test: Pre-emerge greenhouse herbicide test; settings: 250 g ai/ha, 14 days after application, scale 0-100 (0 no damage, 100 complete death)
From the text: as §1, §2, §3, §4, §5

[20] = system: velvetleaf (Abutilon theophrasti, ABUTH); test: Pre-emerge greenhouse herbicide test; settings: 250 g ai/ha, 14 days after application, scale 0-100 (0 no damage, 100 complete death)
From the text: as §1, §2, §3, §4, §5

[21] = system: lambsquarters (Chenopodium album, CHEAL); test: Pre-emerge greenhouse herbicide test; settings: 250 g ai/ha, 14 days after application, scale 0-100 (0 no damage, 100 complete death)
From the text: as §1, §2, §3, §4, §5

[22] = system: large crabgrass (Digitaria sanguinalis, DIGSA); test: Pre-emerge greenhouse herbicide test; settings: 250 g ai/ha, 14 days after application, scale 0-100 (0 no damage, 100 complete death)
From the text: as §1, §2, §3, §4, §5

[23] = system: sicklepod (Cassia obtusifolia, CASOB); test: Pre-emerge greenhouse herbicide test; settings: 250 g ai/ha, 14 days after application, scale 0-100 (0 no damage, 100 complete death)
From the text: as §1, §2, §3, §4, §5

[24] = system: green foxtail (Setaria viridis, SETVI); test: Pre-emerge greenhouse herbicide test; settings: 250 g ai/ha, 14 days after application, scale 0-100 (0 no damage, 100 complete death)
From the text: as §1, §2, §3, §4, §5

[25] = pre-emerge, 250 g ai/ha, 14 days after application, scale 0-100 (0 no damage, 100 complete death)
[26] = 250 g ai/ha, post-emerge, 14 days after application
[27] = var. Dekalb 527, field corn (Zea mays L.), in vivo, 14 days
[28] = var. Pella 86, soybean (Glycine max L.), in vivo, 14 days

SMILES: CCOC(=O)c1nc2c(-n3c(=O)cc(C(F)(F)F)n(C)c3=O)c(F)cc(Cl)c2oc1=O [Compound 3-5]
- Pre-emerge Herbicidal Activity CORN (crop damage rating) [1, 25]: 0
- Pre-emerge Herbicidal Activity RICE (crop damage rating) [2]: 0
- Pre-emerge Herbicidal Activity SOY (crop damage rating) [3, 25]: 0
- Post-emerge crop damage CORN (phytotoxicity rating 0-100) [4, 26]: 0
- Post-emerge crop damage RICE (phytotoxicity rating 0-100) [5, 26]: 0
- Post-emerge crop damage SOY (phytotoxicity rating 0-100) [6, 26]: 0
- Post-emerge Herbicidal Activity AMARE (phytotoxicity rating 0-100) [7]: 20
- Post-emerge Herbicidal Activity ECHCG (phytotoxicity rating 0-100) [8]: 0
- Post-emerge Herbicidal Activity SORHA (phytotoxicity rating 0-100) [9]: 0
- Post-emerge Herbicidal Activity IPOHE (phytotoxicity rating 0-100) [10]: 0
- Post-emerge Herbicidal Activity ABUTH (phytotoxicity rating 0-100) [11]: 60
- Post-emerge Herbicidal Activity CHEAL (phytotoxicity rating 0-100) [12]: 0
- Post-emerge Herbicidal Activity DIGSA (phytotoxicity rating 0-100) [13]: 0
- Post-emerge Herbicidal Activity CASOB (phytotoxicity rating 0-100) [14]: 0
- Post-emerge Herbicidal Activity SETVI (phytotoxicity rating 0-100) [15]: 10
- Pre-emerge Herbicidal Activity AMARE (phytotoxicity rating) [16]: 50
- Pre-emerge Herbicidal Activity ECHCG (phytotoxicity rating) [17]: 0
- Pre-emerge Herbicidal Activity SORHA (phytotoxicity rating) [18]: 0
- Pre-emerge Herbicidal Activity IPOHE (phytotoxicity rating) [19]: 0
- Pre-emerge Herbicidal Activity ABUTH (phytotoxicity rating) [20]: 65
- Pre-emerge Herbicidal Activity CHEAL (phytotoxicity rating) [21]: 70
- Pre-emerge Herbicidal Activity DIGSA (phytotoxicity rating) [22]: 0
- Pre-emerge Herbicidal Activity CASOB (phytotoxicity rating) [23]: 0
- Pre-emerge Herbicidal Activity SETVI (phytotoxicity rating) [24]: 0

SMILES: Cn1c(C(F)(F)F)cc(=O)n(-c2c(F)cc(Cl)c3c2NC(=O)CO3)c1=O [Compound 4-1]
- Pre-emerge Herbicidal Activity CORN (crop damage rating) [1, 25]: 90
- Pre-emerge Herbicidal Activity RICE (crop damage rating) [2]: 90
- Pre-emerge Herbicidal Activity SOY (crop damage rating) [3, 25]: 100
- Post-emerge crop damage CORN (phytotoxicity rating 0-100) [4, 26]: 70
- Post-emerge crop damage RICE (phytotoxicity rating 0-100) [5, 26]: 65
- Post-emerge crop damage SOY (phytotoxicity rating 0-100) [6, 26]: 100
- Post-emerge Herbicidal Activity AMARE (phytotoxicity rating 0-100) [7]: 100
- Post-emerge Herbicidal Activity ECHCG (phytotoxicity rating 0-100) [8]: 30
- Post-emerge Herbicidal Activity SORHA (phytotoxicity rating 0-100) [9]: 40
- Post-emerge Herbicidal Activity IPOHE (phytotoxicity rating 0-100) [10]: 100
- Post-emerge Herbicidal Activity ABUTH (phytotoxicity rating 0-100) [11]: 100
- Post-emerge Herbicidal Activity CHEAL (phytotoxicity rating 0-100) [12]: 100
- Post-emerge Herbicidal Activity DIGSA (phytotoxicity rating 0-100) [13]: 30
- Post-emerge Herbicidal Activity CASOB (phytotoxicity rating 0-100) [14]: 80
- Post-emerge Herbicidal Activity SETVI (phytotoxicity rating 0-100) [15]: 10
- Pre-emerge Herbicidal Activity AMARE (phytotoxicity rating) [16]: 100
- Pre-emerge Herbicidal Activity ECHCG (phytotoxicity rating) [17]: 70
- Pre-emerge Herbicidal Activity SORHA (phytotoxicity rating) [18]: 95
- Pre-emerge Herbicidal Activity IPOHE (phytotoxicity rating) [19]: 100
- Pre-emerge Herbicidal Activity ABUTH (phytotoxicity rating) [20]: 100
- Pre-emerge Herbicidal Activity CHEAL (phytotoxicity rating) [21]: 100
- Pre-emerge Herbicidal Activity DIGSA (phytotoxicity rating) [22]: 100
- Pre-emerge Herbicidal Activity CASOB (phytotoxicity rating) [23]: 100
- Pre-emerge Herbicidal Activity SETVI (phytotoxicity rating) [24]: 100

SMILES: CC1Oc2c(Cl)cc(F)c(-n3c(=O)cc(C(F)(F)F)n(C)c3=O)c2NC1=O (stereo not drawn) [Compound 4-3, 3-(8-Chloro-6-fluoro-2-methyl-2H-1,4-benzoxazin-3-one-5-yl)-1-methyl-6-trifluoromethyl-2,4(1H,3H)-pyrimidindione]
- Pre-emerge Herbicidal Activity CORN (crop damage rating) [1, 27]: 99
- Pre-emerge Herbicidal Activity RICE (crop damage rating) ([2]; var. Tebonnet, upland rice (Ory0a sp.), 14 days): 99
- Pre-emerge Herbicidal Activity SOY (crop damage rating) [3, 28]: 100
- Post-emerge crop damage CORN (phytotoxicity rating 0-100) [4, 27]: 100
- Post-emerge crop damage RICE (phytotoxicity rating 0-100) ([5]; var. Tebonnet, upland rice (Ory0a sp.), in vivo, 14 days): 80
- Post-emerge crop damage SOY (phytotoxicity rating 0-100) [6, 28]: 100
- Post-emerge Herbicidal Activity AMARE (phytotoxicity rating 0-100) [7]: 100
- Post-emerge Herbicidal Activity ECHCG (phytotoxicity rating 0-100) [8]: 80
- Post-emerge Herbicidal Activity SORHA (phytotoxicity rating 0-100) [9]: 90
- Post-emerge Herbicidal Activity IPOHE (phytotoxicity rating 0-100) [10]: 100
- Post-emerge Herbicidal Activity ABUTH (phytotoxicity rating 0-100) [11]: 100
- Post-emerge Herbicidal Activity CHEAL (phytotoxicity rating 0-100) [12]: 100
- Post-emerge Herbicidal Activity DIGSA (phytotoxicity rating 0-100) [13]: 70
- Post-emerge Herbicidal Activity CASOB (phytotoxicity rating 0-100) [14]: 95
- Post-emerge Herbicidal Activity SETVI (phytotoxicity rating 0-100) [15]: 50
- Pre-emerge Herbicidal Activity AMARE (phytotoxicity rating) [16]: 100
- Pre-emerge Herbicidal Activity ECHCG (phytotoxicity rating) [17]: 99
- Pre-emerge Herbicidal Activity SORHA (phytotoxicity rating) [18]: 100
- Pre-emerge Herbicidal Activity IPOHE (phytotoxicity rating) [19]: 100
- Pre-emerge Herbicidal Activity ABUTH (phytotoxicity rating) [20]: 100
- Pre-emerge Herbicidal Activity CHEAL (phytotoxicity rating) [21]: 100
- Pre-emerge Herbicidal Activity DIGSA (phytotoxicity rating) [22]: 100
- Pre-emerge Herbicidal Activity CASOB (phytotoxicity rating) [23]: 100
- Pre-emerge Herbicidal Activity SETVI (phytotoxicity rating) [24]: 100
